Read-outs that look alike come from different tables or passages of the source.
Assays:
MOLM-13 = test: Cell growth inhibition, 4-day proliferation assay, MOLM-13; type: cell-based; conditions: Homo sapiens
Procedure: (§1) The effect of representative Compounds of the Disclosure on cell viability was determined in a 4-day proliferation assay. Cells were maintained in the appropriate culture medium with 100/0 FBS at 37° C. and an atmosphere of 5% CO2. All the cell lines were used within three months of thawing fresh vials.
(§2) In general, cells were seeded in 96-well flat bottom (Corning COSTAR, Corning, N.Y., cat #3595) or white opaque cell culture plates (BD Falcon, cat #353296) at a density of 3,000-10,000 cells/well in 75 μl of culture medium. Compounds were serially diluted in the appropriate medium, and 75 μl of the diluted compounds were added to the appropriate wells of the cell plate. After the addition of compounds, the cells were incubated at 37° C. in an atmosphere of 5% CO2 for 4 days. Cell viability was determined using the CellTiter-Glo® Luminescent Cell Viability Assay Kit (Promega, Madison, Wis.) for leukemia cells and WST (2-(2-methoxy-4-nitrophenyl)-3-(4-nitrophenyl)-5-(2,4-disulfophenyl)-2H-tetrazolium, monosodium salt) Cell Counting-8 Kit (Dojindo Molecular Technologies, Inc., Rockville, Md.) for adherent cells according to the manufacturers' instructions.
(§3) For WST assay (adherent cells), WST-8 reagent was added to each well at a final concentration of 10% (v/v), and then the plates were incubated at 37° C. for 1-2 hours for color development. The absorbance was measured at 450 nm using a SPECTRAmax PLUS plate reader (Molecular Devices, Sunnyvale, Calif.). The readings were normalized to the DMSO-treated cells and the half maximal inhibitory concentration (IC50) was calculated by nonlinear regression (four parameters sigmoid fitted with variable slope, least squares fit, and no constraint) analysis using the GraphPad Prism 5 software (GraphPad Software, La Jolla, Calif.).
(§4) For CellTiter-Glo assay (suspension cells), 100 μl of CellTiter-Glo® Reagent was added to each well, and then the plates were incubated at room temperature for 10-20 minutes. The luminescent signal was measured using a Tecan Infinite M1000 multimode microplate reader (Tecan, Morrisville, N.C.). The readings were normalized to the DMSO-treated cells and the IC50 was calculated by nonlinear regression (four parameters sigmoid fitted with variable slope, least squares fit, and no constraint) analysis using the GraphPad Prism 5 software. See US 2014/0256706.
(§5) For a number of representative compounds in Table 5, their IC50 values in cell growth inhibition activity in the RS4;11 and MOLM-13 human leukemia cell lines and the MDA-MB-231 breast cancer cell line were evaluated using the WST-8 assay described in EXAMPLE 7, with the data shown in Table 7.

MDA-MB-231 = test: Cell growth inhibition, 4-day proliferation assay, MDA-MB-231; type: cell-based; conditions: Homo sapiens
Procedure: as §1, §2, §3, §4, §5

[1] = MOLM-13, WST-8 assay, Table 7, read-out: Cell growth inhibition (IC50 (nM)) MOLM-13
[2] = MDA-MB-231, WST-8 assay, Table 7, read-out: Cell growth inhibition (IC50 (nM)) MDA-MB-231

SMILES	IC50 (MOLM-13; [1]) [nM]	IC50 (MDA-MB-231; [2]) [nM]	also measured
Cc1c(C#Cc2cnn(C)c2)sc2c1C(c1ccc(Cl)cc1)=N[C@@H](CC(=O)N1CCN(C(=O)OC(C)(C)C)CC1)c1nnc(C)n1-2 [Compound 160, tert-butyl (S)-4-(2-(4-(4-chlorophenyl)-3,9-dimethyl-2-((1-methyl-1H-pyrazol-4-yl)ethynyl)-6H-thieno[3,2-f][1,2,4]triazolo[4,3-a][1,4]diazepin-6-yl)acetyl)piperazine-1-carboxylate]	8.5	108	–
Cc1nnc(C[C@@H]2N=C(c3ccc(Cl)cc3)c3c(sc(C#Cc4cnn(C)c4)c3C)-n3c(C)nnc32)o1 [Compound 141, (S)-2-((4-(4-chlorophenyl)-3,9-dimethyl-2-((1-methyl-1H-pyrazol-4-yl)ethynyl)-6H-thieno[3,2-f][1,2,4]triazolo[4,3-a][1,4]diazepin-6-yl)methyl)-5-methyl-1,3,4-oxadiazole]	1.7	31.2	–
Cc1nnc(C[C@@H]2N=C(c3ccc(Cl)cc3)c3c(sc(C#Cc4ncccc4F)c3C)-n3c(C)nnc32)o1 [Compound 139, (S)-2-((4-(4-chlorophenyl)-2-((3-fluoropyridin-2-yl)ethynyl)-3,9-dimethyl-6H-thieno[3,2-f][1,2,4]triazolo[4,3-a][1,4]diazepin-6-yl)methyl)-5-methyl-1,3,4-oxadiazole]	4 to 10	28.9	–
Cc1c(C#Cc2ccc(N)nc2)sc2c1C(c1ccc(Cl)cc1)=N[C@@H](CC(C)C)c1nnc(C)n1-2 [Compound 107, (S)-5-((4-(4-chlorophenyl)-6-isobutyl-3,9-dimethyl-6H-thieno[3,2-f][1,2,4]triazolo[4,3-a][1,4]diazepin-2-yl)ethynyl)pyridin-2-amine]	363	320 ± 90	–
Cc1c(C#Cc2ccccn2)sc2c1C(c1ccc(Cl)cc1)=N[C@@H](CC(=O)N1CC3(CNC3)C1)c1nnc(C)n1-2 [Compound 170, (S)-2-(4-(4-chlorophenyl)-3,9-dimethyl-2-(pyridin-2-ylethynyl)-6H-thieno[3,2-f][1,2,4]triazolo[4,3-a][1,4]diazepin-6-yl)-1-(2,6-diazaspiro[3.3]heptan-2-yl)ethan-1-one]	115	–	–
Cc1c(C#Cc2ccccn2)sc2c1C(c1ccc(Cl)cc1)=N[C@@H](CC(=O)N1CCC(C)(O)CC1)c1nnc(C)n1-2 [Compound 137, (S)-2-(4-(4-chlorophenyl)-3,9-dimethyl-2-(pyridin-2-ylethynyl)-6H-thieno[3,2-f][1,2,4]triazolo[4,3-a][1,4]diazepin-6-yl)-1-(4-hydroxy-4-methylpiperidin-1-yl)ethan-1-one]	43200	> 10000	–
Cc1nnc(C[C@@H]2N=C(c3ccc(Cl)cc3)c3c(sc(C#Cc4ccc(F)cn4)c3C)-n3c(C)nnc32)o1 [Compound 140, (S)-2-((4-(4-chlorophenyl)-2-((5-fluoropyridin-2-yl)ethynyl)-3,9-dimethyl-6H-thieno[3,2-f][1,2,4]triazolo[4,3-a][1,4]diazepin-6-yl)methyl)-5-methyl-1,3,4-oxadiazole]	11.3	52.6	–
Cc1nnc(C[C@@H]2N=C(c3ccc(Cl)cc3)c3c(sc(C#CC4(O)COC4)c3C)-n3c(C)nnc32)o1 [Compound 142, (S)-3-((4-(4-chlorophenyl)-3,9-dimethyl-6-((5-methyl-1,3,4-oxadiazol-2-yl)methyl)-6H-thieno[3,2-f][1,2,4]triazolo[4,3-a][1,4]diazepin-2-yl)ethynyl)oxetan-3-ol]	95.9	785	–
Cc1c(C#Cc2cncn2C)sc2c1C(c1ccc(Cl)cc1)=N[C@@H](CC(=O)N1CCN(C)CC1)c1nnc(C)n1-2 [Compound 165, (S)-2-(4-(4-chlorophenyl)-3,9-dimethyl-2-((1-methyl-1H-imidazol-5-yl)ethynyl)-6H-thieno[3,2-f][1,2,4]triazolo[4,3-a][1,4]diazepin-6-yl)-1-(4-methylpiperazin-1-yl)ethan-1-one]	36.4	–	–
Cc1nnc(C[C@@H]2N=C(c3ccc(Cl)cc3)c3c(sc(C#CC(C)(C)C)c3C)-n3c(C)nnc32)o1 [Compound 147, (S)-2-((4-(4-chlorophenyl)-2-(3,3-dimethylbut-1-yn-1-yl)-3,9-dimethyl-6H-thieno[3,2-f][1,2,4]triazolo[4,3-a][1,4]diazepin-6-yl)methyl)-5-methyl-1,3,4-oxadiazole]	7.4	20.1	–
Cc1c(C#Cc2ccc(O)cn2)sc2c1C(c1ccc(Cl)cc1)=N[C@@H](C)c1nnc(C)n1-2 [Cpd. No. 42]	–	–	IC50 (MOLM-13; MOLM-13, 96 h, read-out: Cell IC50 (nM) MOLM13): 10.6 nM; IC50 (MDA-MB-231; MDA-MB-231, 96 h, read-out: Cell IC50 (nM) MDA-MB-231): 7.9 nM
Cc1c(C#Cc2ccccn2)sc2c1C(c1ccc(Cl)cc1)=N[C@@H](CC(=O)N1CCC(F)(F)C1)c1nnc(C)n1-2 [Compound 171, (S)-2-(4-(4-chlorophenyl)-3,9-dimethyl-2-(pyridin-2-ylethynyl)-6H-thieno[3,2-f][1,2,4]triazolo[4,3-a][1,4]diazepin-6-yl)-1-(3,3-difluoropyrrolidin-1-yl)ethan-1-one]	151	–	–
Cc1nnc(C[C@@H]2N=C(c3ccc(Cl)cc3)c3c(sc(C#CC4CCCC4)c3C)-n3c(C)nnc32)o1 [Compound 146, (S)-2-((4-(4-chlorophenyl)-2-(cyclopentylethynyl)-3,9-dimethyl-6H-thieno[3,2-f][1,2,4]triazolo[4,3-a][1,4]diazepin-6-yl)methyl)-5-methyl-1,3,4-oxadiazole]	17.4	22.5	–
Cc1c(C#Cc2ccccn2)sc2c1C(c1ccc(Cl)cc1)=N[C@@H](CC(=O)NC1CCOCC1)c1nnc(C)n1-2 [Compound 133, (S)-2-(4-(4-chlorophenyl)-3,9-dimethyl-2-(pyridin-2-ylethynyl)-6H-thieno[3,2-f][1,2,4]triazolo[4,3-a][1,4]diazepin-6-yl)-N-(tetrahydro-2H-pyran-4-yl)acetamide]	8.4	338	–
Cc1c(C#Cc2cncn2C)sc2c1C(c1ccc(Cl)cc1)=N[C@@H](CC(=O)N1CCN(C(=O)OC(C)(C)C)CC1)c1nnc(C)n1-2 [Compound 163, tert-butyl (S)-4-(2-(4-(4-chlorophenyl)-3,9-dimethyl-2-((1-methyl-1H-imidazol-5-yl)ethynyl)-6H-thieno[3,2-f][1,2,4]triazolo[4,3-a][1,4]diazepin-6-yl)acetyl)piperazine-1-carboxylate]	33.1	362	–
Cc1c(C#Cc2cnn(CCC(=O)O)c2)sc2c1C(c1ccc(Cl)cc1)=N[C@@H](C)c1nnc(C)n1-2 [Compound 102, (S)-3-(4-((4-(4-chlorophenyl)-3,6,9-trimethyl-6H-thieno[3,2-f][1,2,4]triazolo[4,3-a][1,4]diazepin-2-yl)ethynyl)-1H-pyrazol-1-yl)propanoic acid]	–	–	IC50 (MDA-MB-231; MDA-MB-231, read-out: Cell growth inhibition (IC50 (nM)) MDA-MB-231): 3000 ± 300 nM
Cc1c(C#Cc2cnn(CCCC(=O)O)c2)sc2c1C(c1ccc(Cl)cc1)=N[C@@H](C)c1nnc(C)n1-2 [Compound 101, (S)-4-(4-((4-(4-chlorophenyl)-3,6,9-trimethyl-6H-thieno[3,2-f][1,2,4]triazolo[4,3-a][1,4]diazepin-2-yl)ethynyl)-1H-pyrazol-1-yl)butanoic acid]	–	1030 ± 700	–
Cc1c(C#Cc2ccccn2)sc2c1C(c1ccc(Cl)cc1)=N[C@@H](CC(=O)N1CCC(F)CC1)c1nnc(C)n1-2 [Compound 173, (S)-2-(4-(4-chlorophenyl)-3,9-dimethyl-2-(pyridin-2-ylethynyl)-6H-thieno[3,2-f][1,2,4]triazolo[4,3-a][1,4]diazepin-6-yl)-1-(4-fluoropiperidin-1-yl)ethan-1-one]	–	9.67	–
Cc1c(C#Cc2ccccn2)sc2c1C(c1ccc(Cl)cc1)=N[C@@H](CC(=O)N1CCCC(F)(F)C1)c1nnc(C)n1-2 [Compound 172, (S)-2-(4-(4-chlorophenyl)-3,9-dimethyl-2-(pyridin-2-ylethynyl)-6H-thieno[3,2-f][1,2,4]triazolo[4,3-a][1,4]diazepin-6-yl)-1-(3,3-difluoropiperidin-1-yl)ethan-1-one]	71	–	–

Reference: patent US11046709B2, “Fused 1,4-diazepines as BET bromodomain inhibitors” (THE REGENTS OF THE UNIVERSITY OF MICHIGAN, priority 2017, dated 2021)
